Laboratory results: patent US20110217265A1, “Screening for Inhibitors of HCV Amphipathic Helix (AH) Function” (priority 2008, published 2011)
pIC50: −log10 of the molar value.

What was measured:
2a HCV RNA replicon = 2a HCV RNA replicon assay (FL-J6/JFH-5'C19Rluc2AUbi, luciferase); type: cell-based, Hepatitis C Virus genotype 2a; settings: Hepatitis C virus, read-out: 2a (%) Percent of virus activity remaining in the presence of the compound
Excerpt: Plasmids. Bart79I, a high-efficiency subgenomic replicon of HCV (28), harbors the neomycin resistance gene (neo) and the HCV nonstructural proteins. The Bart-Luciferase plasmid, Bart79I-luc, was cloned from the Bart791 parent (29) and the pGL3-Basic parent (Promega). In brief, a NotI site was introduced after the 15th amino acid of Core in Bart791 using PCR mutagenesis. The plasmid pcDNA3.1-NS4B, which encodes the Con1 NS4B sequence and was used to study the protein stability of the wild type and mutant NS4Bs, was described previously. To introduce the M2 mutation into the 4BAH2 of plasmids encoding HCV replicons or NS4B, the nucleotide sequence GCG that encodes for alanine at NS4B amino acid position 51 was changed to GAG (encoding for glutamate) and the nucleotide sequence TGG that encodes for tryptophan at amino acid position 55 was changed to GAT (encoding for aspartate) through the use of Quick-ChangeTMXL site-directed mutagenesis kit (Stratagene, La Jolla, Calif.) as described by the manufacturer and confirmed by sequencing. FL-J6/JFH-5′C19Rluc2AUbi, which is a monocistronic, full-length HCV genome that expresses Renilla luciferase (Rluc) and was derived from the previously described infectious genotype 2a HCV genome J6/JFH1.
(§1) Antiviral Assays of Compounds. Subconfluent Huh7.5 cells were trypsinized and collected by centrifugation at 700 g for 5 min. The cells were then washed three times in ice-cold RNasefree PBS buffer (BioWhittaker) and resuspended at 1.5×10^7 cells·ml^−1 in PBS buffer. Wild-type FL-J6/JFH-5′C19Rluc2AUbi and Bart79I-luc RNAs for electroporation were generated by in vitro transcription of XbaI (FL-J6/JFH-5′C19Rluc2AUbi) and ScaI (Bart791-luc)-linearized DNA templates using the T7 MEGAscript kit (Ambion), followed by phenol-chloroform purification and DEPC water suspension, 5 μg of RNA were mixed with 400 μl of washed Huh7.5 cells in a 2-mm-gap cuvette (BTX) and immediately pulsed (0.82 kV (FL-J6/JFH-5′C19Rluc2AUbi) and 0.68 kV (Bart79I-luc), five […] pulses) with a BTX-830 electroporator. After 10 min recovery at 25° C., pulsed cells were diluted into 20 ml of pre-warmed growth medium. Cells from several electroporations were pooled to a common stock and seeded in 96-well plates (17,000-20,000 cells per well). After 24 hr, compounds were added to the cells and media changes were performed daily with fresh compounds. After 72 hr of treatment, cells were incubated for 2 hr at 37° C. in the presence of 10% Alamar Blue reagent (TREK Diagnostic Systems) to assess for cytotoxicity. Plates were then scanned and fluorescence was detected by using a FLEXstation II 384 (Molecular Devices). The signal was normalized relative to untreated samples. Viral RNA replication was determined using Renilla (FL-J6/JFH-5′C19Rluc2AUbi) or firefly (Bart791-luc) luciferase assays, according to the manufacturer's (Promega) directions. The same samples subjected to the viability assay described below were analyzed in this assay. According to the manufacturer protocol, cells were washed with PBS buffer and shaken at room temperature for 15 min in 20 μl of lysis buffer. Reporter assays were performed directly in the wells of the culture plates by injecting 100 μl of the assay substrate into each well. Luminescence was measured over 10 seconds with a 2-second delay using a Berthold LB 96 V luminometer. Signal was normalized relative to untreated samples or samples grown in the presence of the corresponding concentration of DMSO. Experiments were repeated three times, each time with 4 replicates.

Huh7.5 cells = assay: Alamar Blue cell viability assay; type: cell-based, human
Method: as §1, with “Plates were then scanned and fluorescence was detected by using a FLEXstation II 384 (Molecular Devices).” left out

HCV 1b RNA replicon = assay: 1b HCV RNA replicon assay, Huh7 cell line with stable luciferase reporter; type: cell-based, Hepatitis C Virus genotype 1b; settings: Huh7, stable LUC reporter

SMILES	activity at 5 µM (2a HCV RNA replicon)	activity at 10 µM (2a HCV RNA replicon)	Cell Viability (%), alamar blue (Huh7.5 cells; 5 μM)	Cell Viability (%), alamar blue (Huh7.5 cells; 10 μM)	1b assay IC50 (HCV 1b RNA replicon)	pIC50 (HCV 1b RNA replicon; Hepatitis C virus, Huh-7)
CC(C)CN(C)c1nc(N)c(C(=O)NCc2ccccc2)nc1Cl [ID 292, 3-amino-N-benzyl-6-chloro-5-(isobutyl(methyl)amino)pyrazine-2-carboxamide 2,2,2-trifluoroacetate]	39%	25%	80%	62%	inactive	–
Cc1cc(Cl)ncc1NC(=O)c1nc(Cl)c(N(C)CC(C)C)nc1N [ID 293, 3-amino-6-chloro-N-(6-chloro-4-methylpyridin-3-yl)-5-(isobutyl(methyl)amino)pyrazine-2-carboxamide bis(2,2,2-trifluoroacetate)]	34%	28%	71%	66%	inactive	–
Cc1cc(F)ncc1NC(=O)c1nc(Cl)c(N(C)CC(C)C)nc1N [ID 297, 3-amino-6-chloro-N-(6-fluoro-4-methylpyridin-3-yl)-5-(isobutyl(methyl)amino)pyrazine-2-carboxamide bis(2,2,2-trifluoroacetate)]	58%	16%	94%	67%	–	–
CC(C)CN(C)c1nc(N)c(C(=O)NC2CCCCC2)nc1Cl.O=C(O)C(F)(F)F [ID 313, 3-amino-6-chloro-N-cyclohexyl-5-(isobutyl(methyl)amino)pyrazine-2-carboxamide 2,2,2-trifluoroacetate]	33%	12%	68%	48%	–	< 4.60
COC(=O)c1cccc(NC(=O)c2nc(Cl)c(N(C)CC(C)C)nc2N)c1.O=C(O)C(F)(F)F [ID 343, methyl 3-(3-amino-6-chloro-5-(isobutyl(methyl)amino)pyrazine-2-carboxamido)benzoate 2,2,2-trifluoroacetate]	65%	38%	98%	93%	–	–
Cc1ccncc1NC(=O)c1cnc(N(C)CC(C)C)cn1 [ID 414, 5-(isobutyl(methyl)amino)-N-(4-methylpyridin-3-yl)pyrazine-2-carboxamide 2,2,2-trifluoroacetate]	60%	53%	100%	90%	–	–
Cc1ccncc1NC(=O)c1nc(Cl)c(N2CCOCC2)nc1N [ID 419, 3-amino-6-chloro-N-(4-methylpyridin-3-yl)-5-morpholinopyrazine-2-carboxamide 2,2,2-trifluoroacetate]	75%	51%	95%	77%	–	–
Cc1ccncc1NC(=O)c1nc(Cl)c(N2CCCC2)nc1N [ID 420, 3-amino-6-chloro-N-(4-methylpyridin-3-yl)-5-(pyrrolidin-1-yl)pyrazine-2-carboxamide 2,2,2-trifluoroacetate]	52%	49%	73%	72%	–	–
Cc1ccncc1NC(=O)c1nc(Cl)c(N(C)Cc2ccccc2)nc1N [ID 424, 3-amino-5-(benzyl(methyl)amino)-6-chloro-N-(4-methylpyridin-3-yl)pyrazine-2-carboxamide 2,2,2-trifluoroacetate]	70%	39%	98%	78%	–	–
Cc1ccncc1NC(=O)c1cnc(N(C)C(C)C)cn1 [ID 459, 5-(isopropyl(methyl)amino)-N-(4-methylpyridin-3-yl)pyrazine-2-carboxamide 2,2,2-trifluoroacetate]	22%	11%	64%	65%	–	–
CCN(CC)c1nc(N)c(C(=O)Nc2cnccc2C)nc1Cl [ID 460, 3-amino-6-chloro-5-(diethylamino)-N-(4-methylpyridin-3-yl)pyrazine-2-carboxamide 2,2,2-trifluoroacetate]	45%	22%	85%	73%	–	–
CCN(C)c1nc(N)c(C(=O)Nc2cnccc2C)nc1Cl [ID 469, 3-amino-6-chloro-5-(ethyl(methyl)amino)-N-(4-methylpyridin-3-yl)pyrazine-2-carboxamide 2,2,2-trifluoroacetate]	65%	42%	75%	71%	–	–
Cc1ccncc1NC(=O)c1cnc(N(C)CC(C)C)c(Cl)n1 [ID 473, 6-chloro-5-(isobutyl(methyl)amino)-N-(4-methylpyridin-3-yl)pyrazine-2-carboxamide 2,2,2-trifluoroacetate]	87%	73%	94%	95%	–	–
